IC50 data for 23 molecules are collected here from patent US8278452B2, “Heterocyclic compounds and compositions as c-kit and PDGFR kinase inhibitors” (IRM LLC, priority 2008, dated 2012).

One may read the IC50 as the midpoint of a concentration-inhibition curve.

In this test the test system is Mo7e cells which endogenously express c-kit. Kind of test: Mo7e assay: inhibition of SCF dependent proliferation (MTT). Type of test: cell-based. The conditions noted are these: Table 1; SCF stimulated Mo7e cells, 48 hours, MTT. As for the experimental part: The compounds described herein are tested for inhibition of SCF dependent proliferation using Mo7e cells which endogenously express c-kit in a 96 well format. Two-fold serially diluted test compounds (Cmax=10 μM) are evaluated for their antiproliferative activity of Mo7e cells stimulated with human recombinant SCF. After 48 hours of incubation at 37° C., cell viability is measured by using a MTT colorimetric assay from Promega. IC50 values for compounds of the invention are quoted in table 1, supra.
`Cc1cc2c(cn1)cc(-c1cc(Nc3nnc(-c4ccc(F)cc4)o3)ccc1C)c(=O)n2C` [Compound B6, 3-(5-{[5-(4-fluorophenyl)-1,3,4-oxadiazol-2-yl]amino}-2-methylphenyl)-1,7-dimethyl-1,2-dihydro-1,6-naphthyridin-2-one] registered an IC50 of 0.121 µM.
Then `Cc1cc2c(cn1)cc(-c1cc(Nc3nnc(-c4ccccc4)o3)ccc1C)c(=O)n2C` [Compound B4, 1,7-dimethyl-3-(2-methyl-5-(5-phenyl-1,3,4-oxadiazol-2-ylamino)phenyl)-1,6-naphthyridin-2(1H)-one], with 0.105 µM; and `Cc1cc2c(cn1)cc(-c1cc(Nc3noc(C(C)(F)F)n3)ccc1C)c(=O)n2C` [Compound A54, 3-(5-(5-(1,1-difluoroethyl)-1,2,4-oxadiazol-3-ylamino)-2-methylphenyl)-1,7-dimethyl-1,6-naphthyridin-2(1H)-one], with 0.148 µM; and `Cc1cc2c(cn1)cc(-c1cc(Nc3noc(-c4csc(-c5cccnc5)n4)n3)ccc1C)c(=O)n2C` [Compound A44, 1,7-dimethyl-3-[2-methyl-5-({5-[2-(pyridin-3-yl)-1,3-thiazol-4-yl]-1,2,4-oxadiazol-3-yl}amino)phenyl]-1,2-dihydro-1,6-naphthyridin-2-one], with 0.456 µM.
For `Cc1cc2c(cn1)cc(-c1cc(Nc3nnc(C(C)C)o3)ccc1C)c(=O)n2C` [Compound B7, 1,7-dimethyl-3-(2-methyl-5-{[5-(propan-2-yl)-1,3,4-oxadiazol-2-yl]amino}phenyl)-1,2-dihydro-1,6-naphthyridin-2-one] the value was 0.162 µM; for `Cc1cc2c(cn1)cc(-c1cc(Nc3noc(-c4nccs4)n3)ccc1C)c(=O)n2C` [Compound A9, 1,7-dimethyl-3-(2-methyl-5-(5-(thiazol-2-yl)-1,2,4-oxadiazol-3-ylamino)phenyl)-1,6-naphthyridin-2(1H)-one], 0.204 µM; for `Cc1cc2c(cn1)cc(-c1cc(Nc3noc(-c4ccc(C(C)(F)F)nc4)n3)ccc1C)c(=O)n2C` [Compound A88, 3-[5-({5-[6-(1,1-difluoroethyl)pyridin-3-yl]-1,2,4-oxadiazol-3-yl}amino)-2-methylphenyl]-1,7-dimethyl-1,2-dihydro-1,6-naphthyridin-2-one], 0.259 µM.
Regarding `Cc1cc2c(cn1)cc(-c1cc(Nc3noc(C4CCC4)n3)ccc1C)c(=O)n2C` [Compound A11, 3-{5-[(5-cyclobutyl-1,2,4-oxadiazol-3-yl)amino]-2-methylphenyl}-1,7-dimethyl-1,2-dihydro-1,6-naphthyridin-2-one], the IC50 was determined as 0.012 µM.
For `Cc1cc2c(cn1)cc(-c1cc(Nc3noc(-c4cccc(C)n4)n3)ccc1C)c(=O)n2C` [Compound A47, 1,7-dimethyl-3-(2-methyl-5-{[5-(6-methylpyridin-2-yl)-1,2,4-oxadiazol-3-yl]amino}phenyl)-1,2-dihydro-1,6-naphthyridin-2-one] the value was 0.311 µM; for `Cc1cc2c(cn1)cc(-c1cc(Nc3noc(-c4ccc(C#N)cc4)n3)ccc1C)c(=O)n2C` [Compound A37, 4-(3-{[3-(1,7-dimethyl-2-oxo-1,2-dihydro-1,6-naphthyridin-3-yl)-4-methylphenyl]amino}-1,2,4-oxadiazol-5-yl)benzonitrile], 0.057 µM.
Then `Cc1cc2c(cn1)cc(-c1cc(Nc3noc(-c4ccc(F)cn4)n3)ccc1C)c(=O)n2C` [Compound A25, 3-(5-{[5-(5-fluoropyridin-2-yl)-1,2,4-oxadiazol-3-yl]amino}-2-methylphenyl)-1,7-dimethyl-1,2-dihydro-1,6-naphthyridin-2-one], with 0.082 µM; and `Cc1cc2c(cn1)cc(-c1cc(Nc3nnc(C(C)(C)C)o3)ccc1C)c(=O)n2C` [Compound B8, 3-{5-[(5-tert-butyl-1,3,4-oxadiazol-2-yl)amino]-2-methylphenyl}-1,7-dimethyl-1,2-dihydro-1,6-naphthyridin-2-one], with 0.211 µM; and `Cc1cc2c(cn1)cc(-c1cc(Nc3noc(-c4ccc(O)cc4)n3)ccc1C)c(=O)n2C` [Compound A36, 3-(5-{[5-(4-hydroxyphenyl)-1,2,4-oxadiazol-3-yl]amino}-2-methylphenyl)-1,7-dimethyl-1,2-dihydro-1,6-naphthyridin-2-one], with 0.375 µM.
For `Cc1cc2c(cn1)cc(-c1cc(Nc3cc(-c4ccc(Cl)nc4)on3)ccc1C)c(=O)n2C` [Compound D12] the value was 0.198 µM; for `Cc1cc2c(cn1)cc(-c1cc(Nc3noc([C@H]4CCCCO4)n3)ccc1C)c(=O)n2C` [Compound A99, 1,7-dimethyl-3-[2-methyl-5-({5-[(2R)-oxan-2-yl]-1,2,4-oxadiazol-3-yl}amino)phenyl]-1,2-dihydro-1,6-naphthyridin-2-one], 0.1 µM.
Molecule `Cc1cc2c(cn1)cc(-c1cc(Nc3noc(-c4ccc(C(C)(F)F)cc4)n3)ccc1C)c(=O)n2C` [Compound A89, 3-[5-({5-[4-(1,1-difluoroethyl)phenyl]-1,2,4-oxadiazol-3-yl}amino)-2-methylphenyl]-1,7-dimethyl-1,2-dihydro-1,6-naphthyridin-2-one] gave an IC50 of 0.217 µM.
Then `Cc1cc2c(cn1)cc(-c1cc(Nc3nc(-c4ccccc4)no3)ccc1C)c(=O)n2C` [Compound E1, 1,7-dimethyl-3-{2-methyl-5-[(3-phenyl-1,2,4-oxadiazol-5-yl)amino]phenyl}-1,2-dihydro-1,6-naphthyridin-2-one], with 0.423 µM; and `Cc1cc2c(cn1)cc(-c1cc(Nc3noc(C4CC(O)C4)n3)ccc1C)c(=O)n2C` (centres unmarked) [Compound A83, 3-(5-{[5-(3-hydroxycyclobutyl)-1,2,4-oxadiazol-3-yl]amino}-2-methylphenyl)-1,7-dimethyl-1,2-dihydro-1,6-naphthyridin-2-one], with 0.251 µM; and `Cc1cc2c(cn1)cc(-c1cc(Nc3noc(-c4cccc(O)c4)n3)ccc1C)c(=O)n2C` [Compound A39, 3-(5-{[5-(3-hydroxyphenyl)-1,2,4-oxadiazol-3-yl]amino}-2-methylphenyl)-1,7-dimethyl-1,2-dihydro-1,6-naphthyridin-2-one], with 0.48 µM.
For `Cc1cc2c(cn1)cc(-c1cc(Nc3noc(-c4cccc(Cl)c4)n3)ccc1C)c(=O)n2C` [Compound A20, 3-(5-{[5-(3-chlorophenyl)-1,2,4-oxadiazol-3-yl]amino}-2-methylphenyl)-1,7-dimethyl-1,2-dihydro-1,6-naphthyridin-2-one] the value was 0.33 µM; for `CCC(C)c1nc(Nc2ccc(C)c(-c3cc4cnc(C)cc4n(C)c3=O)c2)no1` (stereo in doubt) [Compound A27, 3-[5-({5-[(2S)-butan-2-yl]-1,2,4-oxadiazol-3-yl}amino)-2-methylphenyl]-1,7-dimethyl-1,2-dihydro-1,6-naphthyridin-2-one], 0.054 µM.
Then `Cc1ccc(-c2nnc(Nc3ccc(C)c(-c4cc5cnc(C)cc5n(C)c4=O)c3)[nH]2)cc1` [Compound C4, 1,7-dimethyl-3-(2-methyl-5-{[5-(4-methylphenyl)-4H-1,2,4-triazol-3-yl]amino}phenyl)-1,2-dihydro-1,6-naphthyridin-2-one], with 0.288 µM; and `Cc1cc2c(cn1)cc(-c1cc(Nc3noc(C4(CO)CC4)n3)ccc1C)c(=O)n2C` [Compound A69, 3-(5-(5-(1-(hydroxymethyl)cyclopropyl)-1,2,4-oxadiazol-3-ylamino)-2-methylphenyl)-1,7-dimethyl-1,6-naphthyridin-2(1H)-one], with 0.148 µM.
